In test [1] the target is T1, Serine/threonine-protein kinase Nek3 (Homo sapiens) (UniProt P51956).
T1 sequence (whole entry): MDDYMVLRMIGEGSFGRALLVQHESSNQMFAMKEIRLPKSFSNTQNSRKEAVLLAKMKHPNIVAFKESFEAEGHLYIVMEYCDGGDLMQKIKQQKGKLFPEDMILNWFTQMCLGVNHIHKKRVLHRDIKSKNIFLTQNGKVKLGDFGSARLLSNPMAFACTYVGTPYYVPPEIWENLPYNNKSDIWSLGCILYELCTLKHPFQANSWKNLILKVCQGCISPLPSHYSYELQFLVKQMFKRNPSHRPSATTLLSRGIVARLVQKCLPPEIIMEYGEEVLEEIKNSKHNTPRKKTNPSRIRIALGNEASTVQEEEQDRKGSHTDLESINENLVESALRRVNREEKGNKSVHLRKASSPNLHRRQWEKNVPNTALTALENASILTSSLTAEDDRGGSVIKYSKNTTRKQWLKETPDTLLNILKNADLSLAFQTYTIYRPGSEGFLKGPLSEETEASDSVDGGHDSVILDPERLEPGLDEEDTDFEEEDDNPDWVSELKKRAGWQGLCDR
In words: Selectivity interaction (KinomeScan (DiscoverX)) EUB0000607a NEK3. The following applies: at 10 µM.

Test [2] has as its system Epidermal growth factor receptor (Homo sapiens), P00533 [UNDEFINED MUTATION]. The following applies: at 10 µM.
Test [3] has as its target Tyrosine-protein kinase SYK (Homo sapiens, UniProt P43405). In words: Selectivity interaction (KinomeScan (DiscoverX)) EUB0000666a SYK. The following applies: at 10 µM.
Test [4] deals with T2, MAP/microtubule affinity-regulating kinase 4 (Homo sapiens) (UniProt Q96L34).
T2 sequence (whole entry): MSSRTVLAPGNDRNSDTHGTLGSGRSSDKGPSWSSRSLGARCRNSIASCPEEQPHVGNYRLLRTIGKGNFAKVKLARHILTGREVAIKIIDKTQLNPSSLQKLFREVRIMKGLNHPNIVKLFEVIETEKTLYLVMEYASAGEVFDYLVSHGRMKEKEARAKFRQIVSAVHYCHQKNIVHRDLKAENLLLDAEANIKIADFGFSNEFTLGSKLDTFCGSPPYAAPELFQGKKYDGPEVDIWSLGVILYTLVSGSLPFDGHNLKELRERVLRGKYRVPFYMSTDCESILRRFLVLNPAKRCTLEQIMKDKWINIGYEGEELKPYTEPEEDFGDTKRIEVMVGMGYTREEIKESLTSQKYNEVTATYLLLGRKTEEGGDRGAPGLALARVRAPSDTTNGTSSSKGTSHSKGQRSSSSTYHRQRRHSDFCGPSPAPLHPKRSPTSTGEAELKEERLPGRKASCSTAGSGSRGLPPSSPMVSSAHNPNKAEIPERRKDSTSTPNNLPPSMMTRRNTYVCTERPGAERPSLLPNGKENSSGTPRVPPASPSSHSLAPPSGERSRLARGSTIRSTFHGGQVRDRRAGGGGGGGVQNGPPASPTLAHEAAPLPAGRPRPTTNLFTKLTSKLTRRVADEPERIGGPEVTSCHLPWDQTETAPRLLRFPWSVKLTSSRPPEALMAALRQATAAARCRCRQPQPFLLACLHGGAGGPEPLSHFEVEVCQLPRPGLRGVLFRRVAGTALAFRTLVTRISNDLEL
In words: Selectivity interaction (KinomeScan (DiscoverX)) EUB0000655a MARK4. The following applies: at 10 µM.

For test [5], the target named is T3, 5-hydroxytryptamine receptor 1A (Homo sapiens) (UniProt P08908).
T3 sequence (whole entry): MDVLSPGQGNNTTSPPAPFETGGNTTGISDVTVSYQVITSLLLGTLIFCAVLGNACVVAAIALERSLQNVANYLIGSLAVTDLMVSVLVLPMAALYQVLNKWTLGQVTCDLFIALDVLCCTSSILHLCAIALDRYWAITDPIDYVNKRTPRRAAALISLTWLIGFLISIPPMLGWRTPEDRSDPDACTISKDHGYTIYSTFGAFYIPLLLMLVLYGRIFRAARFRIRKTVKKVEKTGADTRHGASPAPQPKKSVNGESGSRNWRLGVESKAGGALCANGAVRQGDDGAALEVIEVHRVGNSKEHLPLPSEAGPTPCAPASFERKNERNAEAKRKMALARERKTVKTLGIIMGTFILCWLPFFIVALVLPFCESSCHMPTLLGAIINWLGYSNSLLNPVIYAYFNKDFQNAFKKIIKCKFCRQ
Nature of the test: Selectivity interaction (Safety Panel 44tm (Eurofins)) EUB0000162b HTR1A. The note with it: at 10 µM.

In test [6] the target is T4, Protein kinase C epsilon type (Homo sapiens) (UniProt Q02156).
T4 sequence (whole entry): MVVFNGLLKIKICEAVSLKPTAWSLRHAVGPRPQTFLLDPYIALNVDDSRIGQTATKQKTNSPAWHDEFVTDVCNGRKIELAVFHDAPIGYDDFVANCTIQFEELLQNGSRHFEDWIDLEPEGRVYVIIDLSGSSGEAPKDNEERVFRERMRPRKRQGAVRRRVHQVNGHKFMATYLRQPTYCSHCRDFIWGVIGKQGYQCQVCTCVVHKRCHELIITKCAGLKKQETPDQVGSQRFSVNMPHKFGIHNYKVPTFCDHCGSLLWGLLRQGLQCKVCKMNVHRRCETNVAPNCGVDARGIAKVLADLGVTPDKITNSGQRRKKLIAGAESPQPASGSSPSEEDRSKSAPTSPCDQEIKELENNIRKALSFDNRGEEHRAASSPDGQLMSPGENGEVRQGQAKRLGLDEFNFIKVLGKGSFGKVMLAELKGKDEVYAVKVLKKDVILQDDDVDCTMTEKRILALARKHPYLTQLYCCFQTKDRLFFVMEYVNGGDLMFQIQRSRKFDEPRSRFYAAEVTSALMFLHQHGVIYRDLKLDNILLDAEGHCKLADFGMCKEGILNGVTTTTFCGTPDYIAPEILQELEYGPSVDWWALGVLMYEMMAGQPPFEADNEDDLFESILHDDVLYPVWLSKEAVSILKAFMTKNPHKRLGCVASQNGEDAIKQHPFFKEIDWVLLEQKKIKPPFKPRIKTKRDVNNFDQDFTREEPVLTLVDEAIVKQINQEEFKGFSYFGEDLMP
In words: Selectivity interaction (Millipore kinase profiler) EUB0000124b PRKCE. The note with it: at 10 µM.

Test [7] concerns the target Protein kinase C beta type (Homo sapiens, UniProt P05771). In words: Selectivity interaction (Millipore kinase profiler) EUB0000124b PRKCB. The following applies: at 10 µM.
The target in test [8] is Serine/threonine-protein kinase PLK2 (Homo sapiens, UniProt Q9NYY3).
Sequence of Serine/threonine-protein kinase PLK2 (Q9NYY3 whole entry): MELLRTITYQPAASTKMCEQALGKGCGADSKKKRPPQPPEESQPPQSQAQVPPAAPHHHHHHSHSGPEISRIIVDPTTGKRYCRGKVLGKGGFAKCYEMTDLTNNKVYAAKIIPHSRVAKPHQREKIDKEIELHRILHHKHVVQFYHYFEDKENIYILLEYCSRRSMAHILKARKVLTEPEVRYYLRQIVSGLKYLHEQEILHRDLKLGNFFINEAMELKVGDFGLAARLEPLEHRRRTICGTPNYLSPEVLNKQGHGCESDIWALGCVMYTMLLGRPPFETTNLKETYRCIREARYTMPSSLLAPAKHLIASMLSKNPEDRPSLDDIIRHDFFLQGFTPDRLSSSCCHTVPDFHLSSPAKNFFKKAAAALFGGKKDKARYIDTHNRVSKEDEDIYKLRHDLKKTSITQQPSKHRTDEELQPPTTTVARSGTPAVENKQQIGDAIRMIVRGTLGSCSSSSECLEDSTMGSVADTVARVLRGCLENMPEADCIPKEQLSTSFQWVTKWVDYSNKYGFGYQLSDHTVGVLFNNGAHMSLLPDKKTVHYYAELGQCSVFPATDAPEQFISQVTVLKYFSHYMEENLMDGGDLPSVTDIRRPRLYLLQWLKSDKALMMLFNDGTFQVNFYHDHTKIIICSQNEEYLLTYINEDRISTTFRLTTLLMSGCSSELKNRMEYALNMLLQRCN
The target in test [9] is Protein kinase C theta type (Homo sapiens, UniProt Q04759). Nature of the test: Selectivity interaction (KinomeScan (DiscoverX)) EUB0001049a PRKCQ. The following applies: at 1 µM.
Sequence of Protein kinase C theta type (Q04759 whole entry, looked up): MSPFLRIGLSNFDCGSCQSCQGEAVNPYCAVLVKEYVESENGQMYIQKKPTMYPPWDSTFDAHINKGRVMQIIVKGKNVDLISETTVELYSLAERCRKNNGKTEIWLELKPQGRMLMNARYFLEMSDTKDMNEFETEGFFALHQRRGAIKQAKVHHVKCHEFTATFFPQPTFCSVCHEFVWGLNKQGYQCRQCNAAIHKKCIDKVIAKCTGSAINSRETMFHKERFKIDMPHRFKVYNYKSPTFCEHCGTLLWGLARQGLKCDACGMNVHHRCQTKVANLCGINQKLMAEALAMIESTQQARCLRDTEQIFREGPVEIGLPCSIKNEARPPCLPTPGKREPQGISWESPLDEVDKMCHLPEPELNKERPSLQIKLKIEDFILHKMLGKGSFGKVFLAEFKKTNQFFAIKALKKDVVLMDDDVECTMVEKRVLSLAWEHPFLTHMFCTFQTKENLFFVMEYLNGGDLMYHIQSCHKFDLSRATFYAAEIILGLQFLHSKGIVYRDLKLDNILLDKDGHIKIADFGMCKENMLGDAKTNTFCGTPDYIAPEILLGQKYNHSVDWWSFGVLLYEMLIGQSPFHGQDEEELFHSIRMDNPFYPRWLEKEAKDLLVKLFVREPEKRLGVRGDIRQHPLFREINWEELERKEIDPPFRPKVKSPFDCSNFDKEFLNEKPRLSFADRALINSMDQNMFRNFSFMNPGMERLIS
In test [10] the target is Mitogen-activated protein kinase 8 (Homo sapiens, UniProt P45983). Nature of the test: Selectivity interaction (KinomeScan (DiscoverX)) EUB0000092b MAPK8. The following applies: at 10 µM.
Sequence of Mitogen-activated protein kinase 8 (P45983 whole entry): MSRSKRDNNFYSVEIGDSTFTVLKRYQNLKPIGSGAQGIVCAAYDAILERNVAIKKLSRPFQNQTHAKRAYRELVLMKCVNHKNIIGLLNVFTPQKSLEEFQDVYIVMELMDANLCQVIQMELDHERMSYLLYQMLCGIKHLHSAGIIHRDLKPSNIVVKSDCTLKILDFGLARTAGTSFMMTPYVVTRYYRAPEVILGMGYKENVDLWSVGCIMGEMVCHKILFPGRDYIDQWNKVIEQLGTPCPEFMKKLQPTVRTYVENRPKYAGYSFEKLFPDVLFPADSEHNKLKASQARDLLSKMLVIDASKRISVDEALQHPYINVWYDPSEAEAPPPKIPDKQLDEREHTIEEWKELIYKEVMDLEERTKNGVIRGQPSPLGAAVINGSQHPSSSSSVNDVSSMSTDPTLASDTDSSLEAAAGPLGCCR

pIC50: −log10 of the molar value. Bounds are passed on as bounds.

Sequence of Epidermal growth factor receptor (Homo sapiens), P00533 [UNDEFINED MUTATION] (P00533 whole entry, looked up, change not shown): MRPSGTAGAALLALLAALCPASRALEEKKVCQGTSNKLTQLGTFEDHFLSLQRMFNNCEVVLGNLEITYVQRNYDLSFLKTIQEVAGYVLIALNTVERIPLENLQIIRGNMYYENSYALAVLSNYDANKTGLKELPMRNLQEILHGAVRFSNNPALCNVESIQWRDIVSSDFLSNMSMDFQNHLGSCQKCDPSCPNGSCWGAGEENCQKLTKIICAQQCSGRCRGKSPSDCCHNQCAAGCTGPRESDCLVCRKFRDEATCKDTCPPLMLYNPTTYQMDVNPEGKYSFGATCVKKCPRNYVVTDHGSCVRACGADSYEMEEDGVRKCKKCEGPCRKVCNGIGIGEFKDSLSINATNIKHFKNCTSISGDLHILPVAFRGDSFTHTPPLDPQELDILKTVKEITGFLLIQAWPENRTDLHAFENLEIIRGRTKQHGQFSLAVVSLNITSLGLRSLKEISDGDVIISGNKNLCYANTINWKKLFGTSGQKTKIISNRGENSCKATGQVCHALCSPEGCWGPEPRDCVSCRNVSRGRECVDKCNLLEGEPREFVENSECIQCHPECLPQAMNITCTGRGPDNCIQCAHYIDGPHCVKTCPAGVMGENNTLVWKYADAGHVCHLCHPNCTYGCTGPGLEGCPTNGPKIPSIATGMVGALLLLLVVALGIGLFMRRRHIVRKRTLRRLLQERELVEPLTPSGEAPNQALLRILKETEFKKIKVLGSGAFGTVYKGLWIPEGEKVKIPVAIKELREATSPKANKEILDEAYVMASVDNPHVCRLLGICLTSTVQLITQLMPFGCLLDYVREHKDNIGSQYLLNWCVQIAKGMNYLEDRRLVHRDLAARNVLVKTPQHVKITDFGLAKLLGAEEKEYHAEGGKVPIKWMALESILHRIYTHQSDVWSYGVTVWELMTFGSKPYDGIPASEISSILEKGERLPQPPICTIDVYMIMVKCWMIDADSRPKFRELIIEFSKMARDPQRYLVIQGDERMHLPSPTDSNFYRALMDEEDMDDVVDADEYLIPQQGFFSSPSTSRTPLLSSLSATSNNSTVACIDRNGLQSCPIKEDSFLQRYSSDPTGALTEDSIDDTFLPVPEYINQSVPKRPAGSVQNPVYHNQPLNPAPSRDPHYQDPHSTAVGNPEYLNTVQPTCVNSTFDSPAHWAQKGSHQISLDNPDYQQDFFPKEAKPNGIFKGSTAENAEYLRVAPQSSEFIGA
Sequence of Protein kinase C beta type (P05771 2-671 limits assumed): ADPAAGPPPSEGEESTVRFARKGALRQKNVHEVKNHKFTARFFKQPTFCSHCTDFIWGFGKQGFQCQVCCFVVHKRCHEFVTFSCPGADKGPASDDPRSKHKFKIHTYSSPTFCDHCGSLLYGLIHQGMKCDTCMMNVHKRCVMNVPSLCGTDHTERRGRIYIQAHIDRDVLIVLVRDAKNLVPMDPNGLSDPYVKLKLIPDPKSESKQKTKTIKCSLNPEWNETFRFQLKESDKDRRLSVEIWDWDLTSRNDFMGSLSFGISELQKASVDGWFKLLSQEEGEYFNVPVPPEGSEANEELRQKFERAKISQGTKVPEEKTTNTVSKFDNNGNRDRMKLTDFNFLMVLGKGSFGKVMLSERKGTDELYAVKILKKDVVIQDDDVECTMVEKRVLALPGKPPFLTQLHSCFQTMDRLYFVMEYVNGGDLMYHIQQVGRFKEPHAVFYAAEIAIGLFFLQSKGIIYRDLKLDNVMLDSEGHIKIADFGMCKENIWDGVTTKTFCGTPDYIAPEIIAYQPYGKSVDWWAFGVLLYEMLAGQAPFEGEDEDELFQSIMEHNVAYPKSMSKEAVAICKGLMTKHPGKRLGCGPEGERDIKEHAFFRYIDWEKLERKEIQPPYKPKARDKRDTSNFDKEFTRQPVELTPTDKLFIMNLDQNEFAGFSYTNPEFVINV

In [1], `CNC(=O)Nc1ccc(-c2nc(N3CC4CCC(C3)O4)c3cnn(C4CCC5(CC4)OCCO5)c3n2)cc1` displayed a % of control of 100%.
`Cc1cc([C@@H](C)Nc2ccccc2C(=O)O)c2nc(N3CCOCC3)cc(=O)n2c1` [AZD-6482] registered a % of control in test [2] of 100%.
For the molecule `O=C(NOC[C@H](O)CO)c1ccc(F)c(F)c1Nc1ccc(I)cc1F`, the % of control in [3] is 100%.
In test [4], `CN(C)CCOc1ccc(-c2nc(-c3ccncc3)c(-c3ccc4c(c3)CC/C4=N\O)[nH]2)cc1` yielded a % of control of 100%.
In [5], `CN(C)C(=O)Cn1cc(-c2ccc(-c3cncc4ccccc34)cc2)cn1` had a % of control of 50%.
Consider `CC(=O)Nc1cccc(-n2c(=O)n(C3CC3)c(=O)c3c(Nc4ccc(I)cc4F)n(C)c(=O)c(C)c32)c1`, for which the % of control is 103% in test [6] and 102% in [7].
In general, pIC50 refers to the IC50 on a negative log10 scale, so that one unit is a factor of ten. `CCc1cccc(CC)c1NC(=O)c1nn(C)c2c1CCc1cnc(Nc3ccc(C(=O)NC4CCN(C)CC4)cc3OC(F)(F)F)nc1-2` had a pIC50 in [8] of less than 5.00.
Regarding `COc1cc(Nc2nc(C)cc(-c3cnn4nc(OC)ccc34)n2)cc(C(F)(F)F)c1`, the % of control in [9] stood at 94%.
For the molecule `CCC(=O)N1CCN(c2ccc(-n3c(=O)ccc4cnc5ccc(-c6cnc7ccccc7c6)cc5c43)cc2C(F)(F)F)CC1`, the % of control in test [10] worked out at 22%.

The record behind these values is ChEMBL document CHEMBL5465560, “Selectivity Literature for EUbOPEN Chemogenomic Library” (2024).
